{"source": "PubChem BioAssay AID2060605", "about": "(Molecular Pharmacology Branch, DTP, NCI, 2025);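 also: spheroids exposed to compounds for one week before readout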;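 as to viability, T/C: 100% = DMSO vehicle control wells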", "system": "947758-054-R-J2-PDC spheroid growth, percent test/control", "experiment": "Anticancer human tumor 947758-054-R-J2-PDC patient-derived colon adenocarcinoma cell line growth inhibition [CLK]", "details": "spheroids with HUVEC and MSC; for IC50: curve of first compound; for viability, T/C: stronger effect = lower value", "outline": "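Multi-cell-type spheroids combined patient-derived tumor cells with HUVEC endothelial cells and human mesenchymal stem cells. Paired agents were dosed in half-log steps down from about clinical Cmax, or from 10 microM where Cmax was unknown.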", "data": [{"smiles": "NC(=O)C(=Cn1cnc(-c2cc(C(F)(F)F)cc(C(F)(F)F)c2)n1)c1cncnc1", "note": "+ CN1CCN(c2cc(C(=O)Nc3cc4cc(-c5cnn(C)c5)ccc4cn3)ccn2)CC1", "values": [{"measurement": "IC50", "setting": "second compound 0.0316 µM", "value": 78.5, "unit": "nM"}, {"measurement": "IC50", "setting": "second compound 0.1 µM", "value": "< 9.49", "unit": "nM"}, {"measurement": "IC50", "setting": "second compound 0.316 µM", "value": "< 9.49", "unit": "nM"}, {"measurement": "IC50", "setting": "second compound 1 µM", "value": "< 9.49", "unit": "nM"}, {"measurement": "IC50", "setting": "second compound 3.16 µM", "value": "< 9.49", "unit": "nM"}, {"measurement": "IC50", "setting": "second compound 10 µM", "value": "< 9.49", "unit": "nM"}, {"measurement": "viability, T/C", "setting": "second compound 0.0316 µM, first compound 0.00949 µM", "value": 195, "unit": "%"}, {"measurement": "viability, T/C", "setting": "second compound 0.0316 µM, first compound 0.03 µM", "value": 224, "unit": "%"}, {"measurement": "viability, T/C", "setting": "second compound 0.0316 µM, first compound 0.0949 µM", "value": 44.3, "unit": "%"}, {"measurement": "viability, T/C", "setting": "second compound 0.0316 µM, first compound 0.3 µM", "value": 19, "unit": "%"}, {"measurement": "viability, T/C", "setting": "second compound 0.0316 µM, first compound 0.949 µM", "value": 10.3, "unit": "%"}, {"measurement": "viability, T/C", "setting": "second compound 0.0316 µM, first compound 3 µM", "value": 0.87, "unit": "%"}, {"measurement": "viability, T/C", "setting": "second compound 0.1 µM, first compound 0.00949 µM", "value": 42.9, "unit": "%"}, {"measurement": "viability, T/C", "setting": "second compound 0.1 µM, first compound 0.03 µM", "value": 24.9, "unit": "%"}, {"measurement": "viability, T/C", "setting": "second compound 0.1 µM, first compound 0.0949 µM", "value": 16.4, "unit": "%"}, {"measurement": "viability, T/C", "setting": "second compound 0.1 µM, first compound 0.3 µM", "value": 6.99, "unit": "%"}, {"measurement": "viability, T/C", "setting": "second compound 0.1 µM, first compound 0.949 µM", "value": 0.38, "unit": "%"}, {"measurement": "viability, T/C", "setting": "second compound 0.1 µM, first compound 3 µM", "value": 0.42, "unit": "%"}, {"measurement": "viability, T/C", "setting": "second compound 0.316 µM, first compound 0.00949 µM", "value": 0.44, "unit": "%"}, {"measurement": "viability, T/C", "setting": "second compound 0.316 µM, first compound 0.03 µM", "value": 0.27, "unit": "%"}, {"measurement": "viability, T/C", "setting": "second compound 0.316 µM, first compound 0.0949 µM", "value": 0.21, "unit": "%"}, {"measurement": "viability, T/C", "setting": "second compound 0.316 µM, first compound 0.3 µM", "value": 1.5, "unit": "%"}, {"measurement": "viability, T/C", "setting": "second compound 0.316 µM, first compound 0.949 µM", "value": 0.15, "unit": "%"}, {"measurement": "viability, T/C", "setting": "second compound 0.316 µM, first compound 3 µM", "value": 0.3, "unit": "%"}, {"measurement": "viability, T/C", "setting": "second compound 1 µM, first compound 0.00949 µM", "value": 0.13, "unit": "%"}, {"measurement": "viability, T/C", "setting": "second compound 1 µM, first compound 0.03 µM", "value": 0.18, "unit": "%"}, {"measurement": "viability, T/C", "setting": "second compound 1 µM, first compound 0.0949 µM", "value": 0.39, "unit": "%"}, {"measurement": "viability, T/C", "setting": "second compound 1 µM, first compound 0.3 µM", "value": 0.33, "unit": "%"}, {"measurement": "viability, T/C", "setting": "second compound 1 µM, first compound 0.949 µM", "value": 1.84, "unit": "%"}, {"measurement": "viability, T/C", "setting": "second compound 1 µM, first compound 3 µM", "value": 0.25, "unit": "%"}, {"measurement": "viability, T/C", "setting": "second compound 3.16 µM, first compound 0.00949 µM", "value": 0.31, "unit": "%"}, {"measurement": "viability, T/C", "setting": "second compound 3.16 µM, first compound 0.03 µM", "value": 0.76, "unit": "%"}, {"measurement": "viability, T/C", "setting": "second compound 3.16 µM, first compound 0.0949 µM", "value": 0.81, "unit": "%"}, {"measurement": "viability, T/C", "setting": "second compound 3.16 µM, first compound 0.3 µM", "value": 0.66, "unit": "%"}, {"measurement": "viability, T/C", "setting": "second compound 3.16 µM, first compound 0.949 µM", "value": 1.31, "unit": "%"}, {"measurement": "viability, T/C", "setting": "second compound 3.16 µM, first compound 3 µM", "value": 1.56, "unit": "%"}, {"measurement": "viability, T/C", "setting": "second compound 10 µM, first compound 0.00949 µM", "value": 0.47, "unit": "%"}, {"measurement": "viability, T/C", "setting": "second compound 10 µM, first compound 0.03 µM", "value": 0.74, "unit": "%"}, {"measurement": "viability, T/C", "setting": "second compound 10 µM, first compound 0.0949 µM", "value": 1.04, "unit": "%"}, {"measurement": "viability, T/C", "setting": "second compound 10 µM, first compound 0.3 µM", "value": 0.9, "unit": "%"}, {"measurement": "viability, T/C", "setting": "second compound 10 µM, first compound 0.949 µM", "value": 1.38, "unit": "%"}, {"measurement": "viability, T/C", "setting": "second compound 10 µM, first compound 3 µM", "value": 0.53, "unit": "%"}]}, {"smiles": "CC(CO)NC(=O)c1cc(-c2ccc(Cl)cc2)nn(-c2cnn(C)c2)c1=O", "note": "(centres undefined) + CNC(=O)c1ccc(Nc2nc(OC3CCCC3)c3c(-c4ccc5nc(C)oc5c4)c[nH]c3n2)c(OC)c1", "values": [{"measurement": "IC50", "setting": "second compound 0.0316 µM", "value": "> 10000", "unit": "nM"}, {"measurement": "IC50", "setting": "second compound 0.1 µM", "value": "> 10000", "unit": "nM"}, {"measurement": "IC50", "setting": "second compound 0.316 µM", "value": 9670, "unit": "nM"}, {"measurement": "IC50", "setting": "second compound 1 µM", "value": "> 10000", "unit": "nM"}, {"measurement": "IC50", "setting": "second compound 3.16 µM", "value": "< 31.6", "unit": "nM"}, {"measurement": "IC50", "setting": "second compound 10 µM", "value": "< 31.6", "unit": "nM"}, {"measurement": "viability, T/C", "setting": "second compound 0.0316 µM, first compound 0.0316 µM", "value": 92.2, "unit": "%"}, {"measurement": "viability, T/C", "setting": "second compound 0.0316 µM, first compound 0.1 µM", "value": 66.3, "unit": "%"}, {"measurement": "viability, T/C", "setting": "second compound 0.0316 µM, first compound 0.316 µM", "value": 72.1, "unit": "%"}, {"measurement": "viability, T/C", "setting": "second compound 0.0316 µM, first compound 1 µM", "value": 71.8, "unit": "%"}, {"measurement": "viability, T/C", "setting": "second compound 0.0316 µM, first compound 3.16 µM", "value": 65.8, "unit": "%"}, {"measurement": "viability, T/C", "setting": "second compound 0.0316 µM, first compound 10 µM", "value": 52.3, "unit": "%"}, {"measurement": "viability, T/C", "setting": "second compound 0.1 µM, first compound 0.0316 µM", "value": 84.3, "unit": "%"}, {"measurement": "viability, T/C", "setting": "second compound 0.1 µM, first compound 0.1 µM", "value": 93.9, "unit": "%"}, {"measurement": "viability, T/C", "setting": "second compound 0.1 µM, first compound 0.316 µM", "value": 80, "unit": "%"}, {"measurement": "viability, T/C", "setting": "second compound 0.1 µM, first compound 1 µM", "value": 84.6, "unit": "%"}, {"measurement": "viability, T/C", "setting": "second compound 0.1 µM, first compound 3.16 µM", "value": 68.6, "unit": "%"}, {"measurement": "viability, T/C", "setting": "second compound 0.1 µM, first compound 10 µM", "value": 52.5, "unit": "%"}, {"measurement": "viability, T/C", "setting": "second compound 0.316 µM, first compound 0.0316 µM", "value": 76.2, "unit": "%"}, {"measurement": "viability, T/C", "setting": "second compound 0.316 µM, first compound 0.1 µM", "value": 69, "unit": "%"}, {"measurement": "viability, T/C", "setting": "second compound 0.316 µM, first compound 0.316 µM", "value": 69.8, "unit": "%"}, {"measurement": "viability, T/C", "setting": "second compound 0.316 µM, first compound 1 µM", "value": 87.1, "unit": "%"}, {"measurement": "viability, T/C", "setting": "second compound 0.316 µM, first compound 3.16 µM", "value": 88.5, "unit": "%"}, {"measurement": "viability, T/C", "setting": "second compound 0.316 µM, first compound 10 µM", "value": 49.1, "unit": "%"}, {"measurement": "viability, T/C", "setting": "second compound 1 µM, first compound 0.0316 µM", "value": 67.2, "unit": "%"}, {"measurement": "viability, T/C", "setting": "second compound 1 µM, first compound 0.1 µM", "value": 51.9, "unit": "%"}, {"measurement": "viability, T/C", "setting": "second compound 1 µM, first compound 0.316 µM", "value": 52.7, "unit": "%"}, {"measurement": "viability, T/C", "setting": "second compound 1 µM, first compound 1 µM", "value": 65.3, "unit": "%"}, {"measurement": "viability, T/C", "setting": "second compound 1 µM, first compound 3.16 µM", "value": 72.4, "unit": "%"}, {"measurement": "viability, T/C", "setting": "second compound 1 µM, first compound 10 µM", "value": 35.9, "unit": "%"}, {"measurement": "viability, T/C", "setting": "second compound 3.16 µM, first compound 0.0316 µM", "value": 46.9, "unit": "%"}, {"measurement": "viability, T/C", "setting": "second compound 3.16 µM, first compound 0.1 µM", "value": 41, "unit": "%"}, {"measurement": "viability, T/C", "setting": "second compound 3.16 µM, first compound 0.316 µM", "value": 51.1, "unit": "%"}, {"measurement": "viability, T/C", "setting": "second compound 3.16 µM, first compound 1 µM", "value": 56.6, "unit": "%"}, {"measurement": "viability, T/C", "setting": "second compound 3.16 µM, first compound 3.16 µM", "value": 55.9, "unit": "%"}, {"measurement": "viability, T/C", "setting": "second compound 3.16 µM, first compound 10 µM", "value": 37.2, "unit": "%"}, {"measurement": "viability, T/C", "setting": "second compound 10 µM, first compound 0.0316 µM", "value": 28.5, "unit": "%"}, {"measurement": "viability, T/C", "setting": "second compound 10 µM, first compound 0.1 µM", "value": 44.2, "unit": "%"}, {"measurement": "viability, T/C", "setting": "second compound 10 µM, first compound 0.316 µM", "value": 40.4, "unit": "%"}, {"measurement": "viability, T/C", "setting": "second compound 10 µM, first compound 1 µM", "value": 41.6, "unit": "%"}, {"measurement": "viability, T/C", "setting": "second compound 10 µM, first compound 3.16 µM", "value": 30, "unit": "%"}, {"measurement": "viability, T/C", "setting": "second compound 10 µM, first compound 10 µM", "value": 25.9, "unit": "%"}]}]}
